Assay results from US20230123334A1, “AMINO LIPID COMPOUND, PREPARATION METHOD THEREFOR, AND APPLICATION THEREOF” (SHENZHEN SHENXIN BIOTECHNOLOGY CO., LTD., priority 2020, published 2023).

Legend:
HEK293 cells [1] = experiment: Preliminary screening as DNA vectors, GFP transfection of HEK293 cells; assay type: cell-based; details: HEK293 cells; lipid/DOPE liposome with 75 ng plasmid DNA (psin-EGFP-IRES-Puro); number of cells expressing GFP divided by total number of nuclei (Hoechst)
How it was run: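 HEK293 cells in DMEM/10% FBS transfected with 75 ng EGFP plasmid per well complexed with amino lipid/DOPE liposomes in pH 5.6 sodium acetate. Hoechst nuclear stain added 20-24 h post-transfection, then cells cultured another 20-24 h. Confocal imaging gives GFP-positive cells as % of total nuclei.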

HEK293 cells [2] = experiment: Preliminary screening as mRNA vectors, EGFP mRNA transfection of HEK293 cells; assay type: cell-based; details: HEK293 cells, 96-well plates, EGFP mRNA 50 ng per well; percentage of GFP fluorescent cells relative to total number of cells (Hoechst)
How it was run: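 HEK293 cells in DMEM plus 10% FBS transfected in 96-well format with 50 ng EGFP mRNA per well; Lipofectamine2000 served as positive control. Read-out is the percentage of GFP-fluorescent cells among total cells, counted by Hoechst nuclear stain.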

| SMILES | Absolute DNA transfection efficiency in HEK293 cells (HEK293 cells [1]) [%] | Absolute mRNA transfection efficiency in HEK293 cells (HEK293 cells [2]) [%] |
| --- | --- | --- |
| CCCCCCCCCCCCNc1nc(NCCCCCCC)nc(NCCCN2CCN(C)CC2)n1 [Compound N7N12D9] | 0.1 | 0.0 |
| CCCCCCCCCCCCNc1nc(NCCCCCCC)nc(NCC2CCN(C)CC2)n1 [Compound N7N12D10] | 1.4 | 0.8 |
| CCCCCCCCCCCCCNc1nc(NCCCCCCC)nc(NCCN(C)C)n1 [Compound N7N13D1] | 1.0 | 0.4 |
| CCCCCCCCCCCCCNc1nc(NCCCCCCC)nc(NCCN2CCOCC2)n1 [Compound N7N13D2] | 0.1 | 0.0 |
| CCCCCCCCCCCCCNc1nc(NCCCCCCC)nc(NCCN2CCCC2)n1 [Compound N7N13D3] | 0.0 | 7.8 |
| CCCCCCCCCCCCCNc1nc(NCCCCCCC)nc(NCCN2CCCCC2)n1 [Compound N7N13D4] | 0.0 | 0.3 |
| CCCCCCCCCCCCCNc1nc(NCCCCCCC)nc(NCCN2CCN(C)CC2)n1 [Compound N7N13D5] | 0.9 | 0.9 |
| CCCCCCCCCCCCCNc1nc(NCCCCCCC)nc(NCCCN(C)C)n1 [Compound N7N13D6] | 1.6 | 2.3 |
| CCCCCCCCCCCCCNc1nc(NCCCCCCC)nc(NCCN(CC)CC)n1 [Compound N7N13D7] | 0.1 | 0.0 |
| CCCCCCCCCCCCCNc1nc(NCCCCCCC)nc(NCCCN2CCOCC2)n1 [Compound N7N13D8] | 0.0 | 0.1 |
| CCCCCCCCCCCCCNc1nc(NCCCCCCC)nc(NCCCN2CCN(C)CC2)n1 [Compound N7N13D9] | 1.3 | 0.1 |
| CCCCCCCCCCCCCNc1nc(NCCCCCCC)nc(NCC2CCN(C)CC2)n1 [Compound N7N13D10] | 1.6 | 1.6 |
| CCCCCCCCCCCCCCCNc1nc(NCCCCCCC)nc(NCCN(C)C)n1 [Compound N7N15D1] | 1.0 | 1.3 |
| CCCCCCCCCCCCCCCNc1nc(NCCCCCCC)nc(NCCN2CCOCC2)n1 [Compound N7N15D2] | 0.0 | 0.1 |
| CCCCCCCCCCCCCCCNc1nc(NCCCCCCC)nc(NCCN2CCCC2)n1 [Compound N7N15D3] | 5.2 | 3.8 |
| CCCCCCCCCCCCCCCNc1nc(NCCCCCCC)nc(NCCN2CCCCC2)n1 [Compound N7N15D4] | 0.2 | 0.0 |
| CCCCCCCCCCCCCCCNc1nc(NCCCCCCC)nc(NCCN2CCN(C)CC2)n1 [Compound N7N15D5] | 0.0 | 0.0 |
| CCCCCCCCCCCCCCCNc1nc(NCCCCCCC)nc(NCCCN(C)C)n1 [Compound N7N15D6] | 1.6 | 1.2 |
| CCCCCCCCCCCCCCCNc1nc(NCCCCCCC)nc(NCCN(CC)CC)n1 [Compound N7N15D7] | 0.0 | 0.0 |
| CCCCCCCCCCCCCCCNc1nc(NCCCCCCC)nc(NCCCN2CCOCC2)n1 [Compound N7N15D8] | 0.2 | 0.2 |
| CCCCCCCCCCCCCCCNc1nc(NCCCCCCC)nc(NCCCN2CCN(C)CC2)n1 [Compound N7N15D9] | 0.6 | 0.7 |
| CCCCCCCCCCCCCCCNc1nc(NCCCCCCC)nc(NCC2CCN(C)CC2)n1 [Compound N7N15D10] | 0.6 | 2.5 |

| SMILES | Absolute DNA transfection efficiency in HEK293 cells (HEK293 cells [1]) [%] | Absolute mRNA transfection efficiency in HEK293 cells (HEK293 cells [2]) [%] |
| --- | --- | --- |
| CCCCCCCCCCCCCCCCNc1nc(NCCCCCCC)nc(NCCN(C)C)n1 [Compound N7N16D1] | 0.9 | 0.5 |
| CCCCCCCCCCCCCCCCNc1nc(NCCCCCCC)nc(NCCN2CCOCC2)n1 [Compound N7N16D2] | 0.0 | 0.1 |
| CCCCCCCCCCCCCCCCNc1nc(NCCCCCCC)nc(NCCN2CCCC2)n1 [Compound N7N16D3] | 2.3 | 1.3 |
| CCCCCCCCCCCCCCCCNc1nc(NCCCCCCC)nc(NCCN2CCCCC2)n1 [Compound N7N16D4] | 0.0 | 0.0 |
| CCCCCCCCCCCCCCCCNc1nc(NCCCCCCC)nc(NCCN2CCN(C)CC2)n1 [Compound N7N16D5] | 0.3 | 0.0 |
| CCCCCCCCCCCCCCCCNc1nc(NCCCCCCC)nc(NCCCN(C)C)n1 [Compound N7N16D6] | 0.6 | 5.0 |
| CCCCCCCCCCCCCCCCNc1nc(NCCCCCCC)nc(NCCN(CC)CC)n1 [Compound N7N16D7] | 0.0 | 0.4 |
| CCCCCCCCCCCCCCCCNc1nc(NCCCCCCC)nc(NCCCN2CCOCC2)n1 [Compound N7N16D8] | 0.1 | 0.0 |
| CCCCCCCCCCCCCCCCNc1nc(NCCCCCCC)nc(NCCCN2CCN(C)CC2)n1 [Compound N7N16D9] | 0.0 | 0.0 |
| CCCCCCCCCCCCCCCCNc1nc(NCCCCCCC)nc(NCC2CCN(C)CC2)n1 [Compound N7N16D10] | 1.8 | 3.1 |
| CCCCCCCCCCCCCCCCCCNc1nc(NCCCCCCC)nc(NCCN(C)C)n1 [Compound N7N18D1] | 1.0 | 2.3 |
| CCCCCCCCCCCCCCCCCCNc1nc(NCCCCCCC)nc(NCCN2CCOCC2)n1 [Compound N7N18D2] | 0.0 | 0.0 |
| CCCCCCCCCCCCCCCCCCNc1nc(NCCCCCCC)nc(NCCN2CCCC2)n1 [Compound N7N18D3] | 5.0 | 0.1 |
| CCCCCCCCCCCCCCCCCCNc1nc(NCCCCCCC)nc(NCCN2CCCCC2)n1 [Compound N7N18D4] | 0.2 | 0.1 |
| CCCCCCCCCCCCCCCCCCNc1nc(NCCCCCCC)nc(NCCN2CCN(C)CC2)n1 [Compound N7N18D5] | 0.7 | 0.1 |
| CCCCCCCCCCCCCCCCCCNc1nc(NCCCCCCC)nc(NCCCN(C)C)n1 [Compound N7N18D6] | 0.7 | 1.1 |
| CCCCCCCCCCCCCCCCCCNc1nc(NCCCCCCC)nc(NCCN(CC)CC)n1 [Compound N7N18D7] | 0.0 | 0.0 |
| CCCCCCCCCCCCCCCCCCNc1nc(NCCCCCCC)nc(NCCCN2CCOCC2)n1 [Compound N7N18D8] | 0.2 | 0.2 |
| CCCCCCCCCCCCCCCCCCNc1nc(NCCCCCCC)nc(NCCCN2CCN(C)CC2)n1 [Compound N7N18D9] | 2.1 | 0.5 |
| CCCCCCCCCCCCCCCCCCNc1nc(NCCCCCCC)nc(NCC2CCN(C)CC2)n1 [Compound N7N18D10] | 15.6 | 73.8 |
| CCCCCCCCNc1nc(NCCCCCCCC)nc(NCCN(C)C)n1 [Compound N8N8D1] | 2.3 | 0.0 |
